Laboratory results: article PMC7613620, “Reaction hijacking of tyrosine tRNA synthetase as a whole-of-life-cycle antimalarial strategy” (Science (New York, N.Y.), 2022)

Assays:
[1] = test system: P. falciparum male gametes; experiment: Dual gamete formation assay (male); type: cell-based; details: Plasmodium falciparum
Procedure: 604 Activity against transmissible stages of P. falciparum
605 Activity against male gametes was assessed using the dual gamete formation assay (PfDGFA)(32).
(§1) 606 Compounds were incubated with mature stage V gametocytes ([…], kind gift from Professor Chris Janse
(§2) 607 at Leiden University Medical Center (LUMC), the Netherlands) for 48 hours in 384 well plates before
608 gamete formation was triggered by a drop in temperature and addition of xanthurenic acid. Male gamete
609 exflagellation was recorded and quantified by automated microscopy. The ability of female gametes to
(§3) 611 Multiple data sets using different gametocyte cultures were collected on each of two separate days.
(§4) 613 Activity against exoerythrocytic stages
614 Primary human hepatocytes (H1500.H15B+ Lot No. HC10-10 Cryopreserved human hepatocytes)
615 were cultured for 2 days and then overlaid with P. falciparum NF54 sporozoites and compounds.
616 Supernatant was refreshed daily with fresh compounds.

Caco2 permeability = type: in vitro ADME; details: human, Caco-2
[2] = biological target: SUMO-activating enzyme (SAE) (Homo sapiens, UniProt Q9UBT2); experiment: biochemical; details: read-out: SAE IC50 HTRF
Description: (§5) 592 E1-E2 Transthiolation Assays
(§6) 593 An Homogeneous Time-Resolved Fluorescence (HTRF) enzyme assay was employed to evaluate
(§7) 594 compound activity against ATG7 as previously described (11). In this assay, a Flag-tagged ATG8 homolog
(§8) 595 (GABA type A receptor-associated protein; GABARAP) is activated by ATG7 and then transthiolated to a
(§9) 596 GST-tagged E2 (ATG3). The product of the enzyme reaction, Flag-GABARAP-ATG3-GST, is quantified
(§10) 597 by measuring FRET between Europium-Cryptate labelled monoclonal anti-Flag M2 (CisBio International,
(§11) 598 Cat# 61FG2KLB) and PHYCOLINK goat anti-GST allophycocyanin (Prozyme, PJ252p1). The activation
599 and transthiolation of ubiquitin by Ubiquitin Activating Enzyme, activation and transthiolation of NEDD8
600 by NEDD8 Activating Enzyme. […]
as §1, §2
608 gamete formation was triggered by a drop in temperature and addition of xanthurenic acid. […]
as §3, §4
614 Primary human hepatocytes (H1500.H15B+ Lot No. HC10-10 Cryopreserved human hepatocytes) […]

[3] = test system: P. falciparum Pf3D70087/N9; experiment: Therapeutic efficacy in SCID mouse P. falciparum model; type: in vivo, Plasmodium falciparum; details: single dose 50 mg/kg i.p.
Description: 589 by genomic sequencing and were routinely tested for mycoplasma contamination using MycoAlert™
590 Mycoplasma Detection Kit (Lonza, Capsugel Australia).
as §5, §6, §7, §8, §9, §10, §11
599 and transthiolation of ubiquitin by Ubiquitin Activating Enzyme, activation and transthiolation of NEDD8 […]
605 Activity against male gametes was assessed using the dual gamete formation assay (PfDGFA)(32). […]
609 exflagellation was recorded and quantified by automated microscopy. […]
610 express Pfs25 on their surface after 24 h at 28°C was assessed by single-image fluorescence microscopy. […]
624 falciparum (Pf3D70087/N9) on day 0. The antimalarial efficacy was assessed following administration (i.p.) […]
638 precipitated with acetonitrile and the remaining compound was assessed by LC-MS/MS in the selected reaction […]

H460 = H460 cell viability (ATP content); type: cell-based; details: Homo sapiens, NCI-H460, 72 h, read-out: H460 IC50(72h)
Procedure: 574 H1650 is a human lung cancer derived ATG7-null cell line (49) that can be used to assess effects on targets
576 adenocarcinoma; bronchoalveolar carcinoma). Other cells lines used are: H460 (NCI-H460; human lung;
577 carcinoma; large cell lung cancer; ATCC: HTB-177); and HCT116 (human colon; colorectal carcinoma;
578 ATCC: CCL-247; Lot : 5056139). Each of the cell lines was received from the American Type Culture
579 Collection (ATCC) and passaged twice before freezing. Cells were cultured in the presence or absence of
580 inhibitors and cell viability was assessed by comparing the ATP content in compound-treated wells with
581 that in DMSO-treated wells as previously described (11). […]
(§12) 585 37°C humidified incubator as adherent semi-confluent monolayers in complete Dulbecco’s Modified Eagle
(§13) 586 Media (c-DMEM). DMEM (Gibco™, Thermo Fisher Scientific, Australia) was supplemented with 10%

HepG2 = HepG2 Cell Titer-GLO luminescent cell viability assay; type: cell-based; details: Homo sapiens, HepG2, 72 h, read-out: HepG2 (luminescence) IC50(72h)
Procedure: 561 Mammalian cell culture experiments
562 The HepG2 (Human hepatocyte carcinoma) cell line was procured from ATCC (American Type
563 Culture Collection, Manassas, USA; HB-8065) and viability assessed using Cell Titer-GLO luminescent
564 cell viability assay reagents (Promega, catalogue number: G7570) (47, 48). For the assay, 2000 cells/well
565 were plated in 384-well plates 24 h prior to the experiment and incubated at 37°C in a CO2 incubator. The
566 medium was removed and cells were treated with fresh medium containing either vehicle (0.5% DMSO)
567 or serially diluted test compounds or doxorubicin (1.3 nM to 25 µM) in a final volume of 50 µl/well and
568 further incubated for 72 h at 37°C in a CO2 incubator.
569 were treated with 5 µl of 1% Triton X-100 (final assay conc. 0.1%). Following incubation, 25 µl of medium
570 was discarded and 25 µl of Cell Titer-GLO reagent was added to each well and the plate was kept on a plate
571 shaker for 15 min at 25°C with shaking at 300 rpm. Luminescence signals were measured in a Spectramax
572 M5 reader (Molecular Devices). […]
as §12, §13

Chain of SUMO-activating enzyme (SAE) (Q9UBT2 whole entry): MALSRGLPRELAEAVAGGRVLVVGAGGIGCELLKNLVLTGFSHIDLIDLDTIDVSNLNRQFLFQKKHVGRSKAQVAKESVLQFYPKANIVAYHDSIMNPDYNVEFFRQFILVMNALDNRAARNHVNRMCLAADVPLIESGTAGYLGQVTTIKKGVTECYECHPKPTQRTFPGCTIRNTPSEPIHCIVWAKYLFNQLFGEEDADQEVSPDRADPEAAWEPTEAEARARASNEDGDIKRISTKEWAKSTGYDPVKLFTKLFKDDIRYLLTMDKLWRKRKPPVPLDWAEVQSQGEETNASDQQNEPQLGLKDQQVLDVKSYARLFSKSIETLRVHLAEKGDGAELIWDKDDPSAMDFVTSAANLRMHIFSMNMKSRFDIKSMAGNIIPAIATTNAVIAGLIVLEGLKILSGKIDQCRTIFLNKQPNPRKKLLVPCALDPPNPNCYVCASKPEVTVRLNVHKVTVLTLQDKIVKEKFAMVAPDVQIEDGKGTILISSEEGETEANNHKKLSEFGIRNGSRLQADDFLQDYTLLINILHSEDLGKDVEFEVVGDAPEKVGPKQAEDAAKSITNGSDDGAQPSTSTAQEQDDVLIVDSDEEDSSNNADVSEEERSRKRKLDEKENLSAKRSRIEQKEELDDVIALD
Chain of SUMO-activating enzyme (SAE) (Q9UBE0 whole entry partner): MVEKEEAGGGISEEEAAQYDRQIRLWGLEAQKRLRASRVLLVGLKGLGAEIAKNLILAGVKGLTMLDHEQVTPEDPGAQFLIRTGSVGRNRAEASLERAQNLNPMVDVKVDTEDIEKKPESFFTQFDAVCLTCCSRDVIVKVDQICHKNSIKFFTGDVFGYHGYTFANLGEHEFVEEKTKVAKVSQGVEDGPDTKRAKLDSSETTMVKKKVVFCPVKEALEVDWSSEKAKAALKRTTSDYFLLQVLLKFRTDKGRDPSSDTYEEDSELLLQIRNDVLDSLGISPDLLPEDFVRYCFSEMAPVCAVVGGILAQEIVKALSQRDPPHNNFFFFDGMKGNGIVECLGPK

Nc1ncnc2c1c(OC(F)F)nn2[C@@H]1O[C@H](COS(N)(=O)=O)[C@@H](O)[C@H]1O [ML901]
IC50 ([1]; 48 h incubation with stage V gametocytes): 130 ± 10 nM
inhibition at 25 µM ([1]; at 25 µM): 99%
Papp A→B (Caco2 permeability; A to B): 0.7 ×10⁻⁶ cm/s
Papp B→A (Caco2 permeability; B to A): 0.82 ×10⁻⁶ cm/s
IC50 [2]: > 1000 nM
effect on parasitemia ([3]; SCID mice engrafted with P. falciparum infected human RBCs): reduction of parasitemia to baseline
toxicity ([3]; SCID mice): no evidence of toxicity
IC50 (H460): 4650 nM
IC50 (HepG2): 1630 nM
